The text below walks through data of US20250034167A1, “HETEROCYCLIC COMPOUNDS AND METHODS OF USE” (AMGEN INC., priority 2021, published 2025).

One test deals with Phosphorylation of ERK1/2 in AsPC-1 cells. As to the kind of experiment: Phospho-ERK1/2 MSD Assay. Format: cell-based. The following applies: Homo sapiens, ASPC1, 2 h, read-out: 2 h p-ERK (AsPC-1 cells), IC50, AsPC-1 cells, 2 h compound treatment. Here is the method: Sixteen hours prior to compound treatment, AsPC-1 cells were seeded in 96-well cell culture plates at a density of 25,000 cells/well and incubated at 37° C., 5% CO2. A compound dose-response titration was diluted in growth media, added to appropriate wells of a cell culture plate, and then incubated at 37° C., 5% CO2 for 2 hours.
On to `CCc1c(F)ccc2cc(O)cc(-c3ncc4c(N5CCC[C@](C)(N)C5)nc(OC[C@@]56CCCN5C[C@H](F)C6)nc4c3F)c12` [Example 45, 4-(4-((S)-3-Amino-3-methylpiperidin-1-yl)-8-fluoro-2-(((2R,7aS)-2-fluorotetrahydro-1H-pyrrolizin-7a(5H)-yl)methoxy)pyrido[4,3-d]pyrimidin-7-yl)-5-ethyl-6-fluoronaphthalen-2-ol], for which the concentration for half-maximal inhibition (IC50) amounted to 2960 nM.

Regarding `CCc1c(F)ccc2cc(O)cc(-c3ncc4c(N5CC[C@H](F)[C@H](O)C5)nc(OC[C@@]56CCCN5C[C@H](F)C6)nc4c3F)c12` [Example 47, (3R,4S)-1-(7-(8-Ethyl-7-fluoro-3-hydroxynaphthalen-1-yl)-8-fluoro-2-(((2R,7aS)-2-fluorotetrahydro-1H-pyrrolizin-7a(5H)-yl)methoxy)pyrido[4,3-d]pyrimidin-4-yl)-4-fluoropiperidin-3-ol], the 50% inhibitory concentration (IC50) was 222 nM.

On to `CCc1c(F)ccc2cccc(-c3ncc4c(N5CCC[C@@](C)(O)C5)nc(OC[C@@]56CCCN5C[C@H](F)C6)nc4c3F)c12` [Example 48, (R)-1-(7-(8-Ethyl-7-fluoronaphthalen-1-yl)-8-fluoro-2-(((2R,7aS)-2-fluorotetrahydro-1H-pyrrolizin-7a(5H)-yl)methoxy)pyrido[4,3-d]pyrimidin-4-yl)-3-methylpiperidin-3-ol], for which the IC50 was determined as 341 nM.

For the molecule `C[C@@]1(O)CCCN(c2nc(OC[C@@]34CCCN3C[C@H](F)C4)nc3c(F)c(-c4cc(O)cc5ccc(F)c(F)c45)ncc23)C1` [Example 59, (R)-1-(7-(7,8-Difluoro-3-hydroxynaphthalen-1-yl)-8-fluoro-2-(((2R,7aS)-2-fluorotetrahydro-1H-pyrrolizin-7a(5H)-yl)methoxy)pyrido[4,3-d]pyrimidin-4-yl)-3-methylpiperidin-3-ol], the IC50 turned out to be 33 nM.

Regarding `CCc1c(F)ccc2cc(O)cc(-c3ncc4c(N5CC6CC5C(C)(O)C6)nc(OC[C@@]56CCCN5C[C@H](F)C6)nc4c3F)c12` (stereo partly drawn) [Example 71, 2-(7-(8-Ethyl-7-fluoro-3-hydroxynaphthalen-1-yl)-8-fluoro-2-(((2R,7aS)-2-fluorotetrahydro-1H-pyrrolizin-7a(5H)-yl)methoxy)pyrido[4,3-d]pyrimidin-4-yl)-6-methyl-2-azabicyclo[2.2.1]heptan-6-ol], the IC50 was 1170 nM.

`CCc1c(F)ccc2cc(O)cc(-c3ncc4c(N5CCC[C@@H](NC(=S)NCCOC)C5)nc(OC[C@@]56CCCN5C[C@H](F)C6)nc4c3F)c12` [Example 74, 1-((R)-1-(7-(8-ethyl-7-fluoro-3-hydroxynaphthalen-1-yl)-8-fluoro-2-(((2R,7aS)-2-fluorotetrahydro-1H-pyrrolizin-7a(5H)-yl)methoxy)pyrido[4,3-d]pyrimidin-4-yl)piperidin-3-yl)-3-(2-methoxyethyl)thiourea]: the IC50 turned out to be 2710 nM.

The test is the same for the next values; noted with them: Homo sapiens, ASPC1, read-out: 2 h p-ERK (AsPC-1 cells), IC50; AsPC-1 cells, 2 h compound treatment.
Regarding `CCc1c(F)ccc2cc(O)cc(-c3ncc4c(N5CCC[C@@](C)(O)C5)nc(OC[C@@]56CCCN5C[C@H](F)C6)nc4c3F)c12` [Example 38, (R)-1-(7-(8-ethyl-7-fluoro-3-hydroxynaphthalen-1-yl)-8-fluoro-2-(((2R,7aS)-2-fluorotetrahydro-1H-pyrrolizin-7a(5H)-yl)methoxy)pyrido[4,3-d]pyrimidin-4-yl)-3-methyl-piperidin-3-ol], the concentration for half-maximal inhibition (IC50) stood at 5 nM.

Regarding `CCc1c(F)ccc2cc(O)cc(-c3ncc4c(N5CCC[C@@](C)(O)C5)nc(OC[C@]56CCCN5C[C@H](F)C6)nc4c3F)c12` [Example 53, (R)-1-(7-(8-ethyl-7-fluoro-3-hydroxynaphthalen-1-yl)-8-fluoro-2-(((2R,7aR)-2-fluorotetrahydro-1H-pyrrolizin-7a(5H)-yl)methoxy)pyrido[4,3-d]pyrimidin-4-yl)-3-methylpiperidin-3-ol], the IC50 came to 13 nM.
